test system: analgesic activity of morphine; test: Tail Flick Test: increase in the analgesic effect of morphine; assay type: in vivo, rats; details: 10'; compound 10 mg/kg i.p. + morphine 2 mg/kg (row Morphine: alone); ± S.E.
Method: Increase in the analgesic effect of analgesic-narcotic drugs in rats in the Tail Flick Test
The method is that described by Harris et al. (J. Pharmacol. Exp. Ther. 143 (1964) 141-148).
Male rats are used which have a weight of about 150-200 g and which have not been fasting. A point is chosen on the tail and this is irradiated by a heat source (75° C.) and the time (in seconds) for which the animal remains without moving its tail is measured.
A maximum period of time under the heat source of 8 seconds is chosen after which the animal is, in any case, removed in order to avoid tissue damage. The measurement is effected before (controls) and after treatment with the drugs.
. The percentage variation is calculated for each individual animal by the following formula: [formula] The measurements are carried out 10, 20, 30, 45, 60 and 90 minutes after treatment with the analgesics.
The results obtained are given in Table 1 which records the groups treated and the doses administered, the
average percentage variations (calculated on groups of five animals) in […]

Row | Compound | percentage variation in the latency of the pain sensation, 10' [%]
1 | Cc1ccc(COC(=O)N[C@@H](Cc2c[nH]c3ccccc23)C(=O)O)cc1 [Compound 8] | 12.4 ± 4.9
2 | CCc1ccc(COC(=O)N[C@@H](Cc2c[nH]c3ccccc23)C(=O)O)cc1 [Compound 9] | 46.7 ± 14.7
3 | CN1CC[C@]23c4c5ccc(O)c4O[C@H]2[C@@H](O)C=C[C@H]3[C@H]1C5 [Morphine, morphine, reference compound] | 10.8 ± 4.0

same assay, conditions: 20'; compound 10 mg/kg i.p. + morphine 2 mg/kg (row Morphine: alone); ± S.E.

Row | Compound | percentage variation in the latency of the pain sensation, 20' [%]
4 | Cc1ccc(COC(=O)N[C@@H](Cc2c[nH]c3ccccc23)C(=O)O)cc1 [Compound 8] | 38.4 ± 22.2
5 | CCc1ccc(COC(=O)N[C@@H](Cc2c[nH]c3ccccc23)C(=O)O)cc1 [Compound 9] | 62.2 ± 16.5
6 | CN1CC[C@]23c4c5ccc(O)c4O[C@H]2[C@@H](O)C=C[C@H]3[C@H]1C5 [Morphine, morphine, reference compound] | 54.2 ± 17.0

same assay, conditions: 30'; compound 10 mg/kg i.p. + morphine 2 mg/kg (row Morphine: alone); ± S.E.

Row | Compound | percentage variation in the latency of the pain sensation, 30' [%]
7 | Cc1ccc(COC(=O)N[C@@H](Cc2c[nH]c3ccccc23)C(=O)O)cc1 [Compound 8] | 56.5 ± 20.3
8 | CCc1ccc(COC(=O)N[C@@H](Cc2c[nH]c3ccccc23)C(=O)O)cc1 [Compound 9] | 39.6 ± 15.7
9 | CN1CC[C@]23c4c5ccc(O)c4O[C@H]2[C@@H](O)C=C[C@H]3[C@H]1C5 [Morphine, morphine, reference compound] | 46.6 ± 21.0

same assay, conditions: 45'; compound 10 mg/kg i.p. + morphine 2 mg/kg (row Morphine: alone); ± S.E.

Row | Compound | percentage variation in the latency of the pain sensation, 45' [%]
10 | Cc1ccc(COC(=O)N[C@@H](Cc2c[nH]c3ccccc23)C(=O)O)cc1 [Compound 8] | 48.0 ± 26.1
11 | CCc1ccc(COC(=O)N[C@@H](Cc2c[nH]c3ccccc23)C(=O)O)cc1 [Compound 9] | 86.9 ± 8.0
12 | CN1CC[C@]23c4c5ccc(O)c4O[C@H]2[C@@H](O)C=C[C@H]3[C@H]1C5 [Morphine, morphine, reference compound] | 41.7 ± 16.0

same assay, conditions: 60'; compound 10 mg/kg i.p. + morphine 2 mg/kg (row Morphine: alone); ± S.E.

Row | Compound | percentage variation in the latency of the pain sensation, 60' [%]
13 | Cc1ccc(COC(=O)N[C@@H](Cc2c[nH]c3ccccc23)C(=O)O)cc1 [Compound 8] | 48.5 ± 21.5
14 | CCc1ccc(COC(=O)N[C@@H](Cc2c[nH]c3ccccc23)C(=O)O)cc1 [Compound 9] | 46.7 ± 20.4
15 | CN1CC[C@]23c4c5ccc(O)c4O[C@H]2[C@@H](O)C=C[C@H]3[C@H]1C5 [Morphine, morphine, reference compound] | 32.0 ± 17.0

same assay, conditions: 90'; compound 10 mg/kg i.p. + morphine 2 mg/kg (row Morphine: alone); ± S.E.

Row | Compound | percentage variation in the latency of the pain sensation, 90' [%]
16 | Cc1ccc(COC(=O)N[C@@H](Cc2c[nH]c3ccccc23)C(=O)O)cc1 [Compound 8] | 54.4 ± 24.7
17 | CCc1ccc(COC(=O)N[C@@H](Cc2c[nH]c3ccccc23)C(=O)O)cc1 [Compound 9] | 40.8 ± 22.4
18 | CN1CC[C@]23c4c5ccc(O)c4O[C@H]2[C@@H](O)C=C[C@H]3[C@H]1C5 [Morphine, morphine, reference compound] | -6.4 ± 10.0

same assay, conditions: mean 10'-90'; compound 10 mg/kg i.p. + morphine 2 mg/kg (row Morphine: alone)

Row | Compound | M(10'-90') average percentage variation [%]
19 | Cc1ccc(COC(=O)N[C@@H](Cc2c[nH]c3ccccc23)C(=O)O)cc1 [Compound 8] | 43.0
20 | CCc1ccc(COC(=O)N[C@@H](Cc2c[nH]c3ccccc23)C(=O)O)cc1 [Compound 9] | 53.8
21 | CN1CC[C@]23c4c5ccc(O)c4O[C@H]2[C@@H](O)C=C[C@H]3[C@H]1C5 [Morphine, morphine, reference compound] | 29.8

same assay, conditions: rat, in vivo

Row | Compound | Potency ratio relative to morphine alone
22 | Cc1ccc(COC(=O)N[C@@H](Cc2c[nH]c3ccccc23)C(=O)O)cc1 [Compound 8] | 1.44
23 | CCc1ccc(COC(=O)N[C@@H](Cc2c[nH]c3ccccc23)C(=O)O)cc1 [Compound 9] | 1.80

test system: tolerance induced by morphine; test: Antagonism to the development of tolerance to repeated administration of morphine HCl (tail flick); assay type: in vivo, rats; details: day 0; 3 mg/kg i.p. + morphine HCl 3 mg/kg i.p. (row Morphine: alone)
Method: Several of the compounds of the invention were examined to determine any capacity to antagonise the development of tolerance induced by morphine. Groups of six male rats having a weight of about 200-250 were used.
At intervals of 24 hours from the first treatment (time 0), each animal (except for the control group treated with a physiological solution) received 3 mg/kg of morphine hydrochloride i.p. together with 3 mg/kg i.p. of the compounds indicated (with the exception of the group treated solely with morphine).
The determination of the threshold for the pain stimulus was effected at 15°, 30', 45' and 60' intervals from the treatment by the "tail flick" test.

Row | Compound | percentage variation in the latency time, day 0 [%]
24 | CN1CC[C@]23c4c5ccc(O)c4O[C@H]2[C@@H](O)C=C[C@H]3[C@H]1C5 [Morphine, morphine, reference compound] | 35.83

same assay, conditions: day 1; 3 mg/kg i.p. + morphine HCl 3 mg/kg i.p. (row Morphine: alone)

Row | Compound | percentage variation in the latency time, day 1 [%]
25 | CN1CC[C@]23c4c5ccc(O)c4O[C@H]2[C@@H](O)C=C[C@H]3[C@H]1C5 [Morphine, morphine, reference compound] | 37.43

same assay, conditions: day 2; 3 mg/kg i.p. + morphine HCl 3 mg/kg i.p. (row Morphine: alone)

Row | Compound | percentage variation in the latency time, day 2 [%]
26 | CN1CC[C@]23c4c5ccc(O)c4O[C@H]2[C@@H](O)C=C[C@H]3[C@H]1C5 [Morphine, morphine, reference compound] | 30.33

same assay, conditions: day 3; 3 mg/kg i.p. + morphine HCl 3 mg/kg i.p. (row Morphine: alone)

Row | Compound | percentage variation in the latency time, day 3 [%]
27 | CN1CC[C@]23c4c5ccc(O)c4O[C@H]2[C@@H](O)C=C[C@H]3[C@H]1C5 [Morphine, morphine, reference compound] | 16.06

same assay, conditions: day 4; 3 mg/kg i.p. + morphine HCl 3 mg/kg i.p. (row Morphine: alone)

Row | Compound | percentage variation in the latency time, day 4 [%]
28 | CN1CC[C@]23c4c5ccc(O)c4O[C@H]2[C@@H](O)C=C[C@H]3[C@H]1C5 [Morphine, morphine, reference compound] | 22.46

same assay, conditions: day 5; 3 mg/kg i.p. + morphine HCl 3 mg/kg i.p. (row Morphine: alone)

Row | Compound | percentage variation in the latency time, day 5 [%]
29 | CN1CC[C@]23c4c5ccc(O)c4O[C@H]2[C@@H](O)C=C[C@H]3[C@H]1C5 [Morphine, morphine, reference compound] | 9.63

same assay, conditions: day 6; 3 mg/kg i.p. + morphine HCl 3 mg/kg i.p. (row Morphine: alone)

Row | Compound | percentage variation in the latency time, day 6 [%]
30 | CN1CC[C@]23c4c5ccc(O)c4O[C@H]2[C@@H](O)C=C[C@H]3[C@H]1C5 [Morphine, morphine, reference compound] | 7.28

same assay, conditions: day 7; 3 mg/kg i.p. + morphine HCl 3 mg/kg i.p. (row Morphine: alone)

Row | Compound | percentage variation in the latency time, day 7 [%]
31 | CN1CC[C@]23c4c5ccc(O)c4O[C@H]2[C@@H](O)C=C[C@H]3[C@H]1C5 [Morphine, morphine, reference compound] | 1.95

same assay, conditions: days 0-7; 3 mg/kg + morphine (row Morphine: alone)

Row | Compound | regression line % Effect versus Day
32 | CN1CC[C@]23c4c5ccc(O)c4O[C@H]2[C@@H](O)C=C[C@H]3[C@H]1C5 [Morphine, morphine, reference compound] | % Effect = - 5.34 Day + 38.72

same assay, conditions: from the straight lines of regression; groups C, D and E extrapolated

Row | Compound | day on which activity falls to 0 / inactive level is reached
33 | CN1CC[C@]23c4c5ccc(O)c4O[C@H]2[C@@H](O)C=C[C@H]3[C@H]1C5 [Morphine, morphine, reference compound] | sixth

test system: guinea pig gall bladder contracted with CCK-8; test: Anti-CCK activity on guinea pig gall bladders in vitro; assay type: biochemical; details: CCK-8 10 ng/ml, concentration antagonising 50% of contracting effect
Method: A longitudinal strip of guinea pig gall bladder is placed in a bath of Krebs for isolated organs at a temperature of 32° C. and oxygenated continuously with an oxygen-CO2 mixture (95-5 V/V).
The […] contractions are detected by means of a force transducer and recorded.
The gall bladder is contracted with the use of a CCK-8 solution at a concentration of 10 ng/ml; the antagonistic activity of the compounds of the invention towards the contracting effect of the CCK is determined with the use of different concentrations, the ED50 value, that is the concentration of the compound in mcg/ml capable of antagonising 50% of the contracting effect of the CCK, being determined.
The results obtained are set out in the following table which gives the compounds tested and the ED50 values which are calculated by the method of regression on a test of at least three experiments for each compound studied.

Row | Compound | Anti CCK-8 activity, ED50 [µg/mL]
34 | Cc1ccc(COC(=O)N[C@@H](Cc2c[nH]c3ccccc23)C(=O)O)cc1 [Compound 8] | 114.3
35 | CCc1ccc(COC(=O)N[C@@H](Cc2c[nH]c3ccccc23)C(=O)O)cc1 [Compound 9] | 125.4

— patent US4870097A, “Pharmaceutical use of derivatives of tryptophan” (priority 1984, dated 1989)
